We go through nine compounds from PMC7168333, “5-(Carbamoylmethylene)-oxazolidin-2-ones as a Promising Class of Heterocycles Inducing Apoptosis Triggered by Increased ROS Levels and Mitochondrial Dysfunction in Breast and Cervical Cancer” (Biomedicines, 2020).

Molecules are shown by their SMILES.

For one experiment, the system named is MCF-10A cells. Put plainly: MTT cell viability assay, MCF-10A. The following applies: Homo sapiens, MCF-10A, 72 h. It is filed as cell-based, human.
A further experiment has as its system MCF-7 cells. Put plainly: MTT cell viability assay, MCF-7. It is filed as cell-based. The following applies: Homo sapiens, MCF7, 72 h. As to the method:
Cell viability was assessed by using 3-(4,5-dimethylthiazol-2-y1)-2,5-diphenyltetrazolium bromide (MTT) assay (Sigma-Aldrich, Milan, Italy), as already reported. […] Untreated cells were added with the vehicle (DMSO) and used as a control. After treatment, fresh MTT reagent (used at a final concentration of 0.5 mg/mL) was added, prolonging incubation for 2 h according to the manufacturer’s protocol. Absorbance at 570 nm was measured in each well, including controls, and every experiment was carried out in triplicate.
(§1) For each sample, mean absorbance was expressed as a percentage of the control and plotted vs. drug concentration, in order to determine the IC50 value (i.e., drug concentration able to decrease cell viability by 50% with respect to the control) for each cell line, generating a sigmoidal dose–response curve by the use of GraphPad Prism 7 software (GraphPad Inc., San Diego, CA, USA). Mean values and standard deviations (SD) of three independent experiments carried out in triplicate were reported. […]

The test system of the next experiment is HeLa cells. Put plainly: MTT cell viability assay, HeLa. It is filed as cell-based. The note with it: Homo sapiens, 72 h. As to the method: Cell viability was assessed by using 3-(4,5-dimethylthiazol-2-y1)-2,5-diphenyltetrazolium bromide (MTT) assay (Sigma-Aldrich, Milan, Italy), as already reported. In brief, MCF-7 and HeLa cells (2 × 10^4 cells/well) were seeded in a 48-well plate and grown in complete medium overnight, then they were switched into DMEM-F12 supplemented with 2% FBS and treated with increasing concentrations (1, 10, 50, 75, and 100 µM) of different oxazolidin-2-ones derivatives (OA-OI) or doxorubicin for 72 h. Untreated cells were added with the vehicle (DMSO) and used as a control. After treatment, fresh MTT reagent (used at a final concentration of 0.5 mg/mL) was added, prolonging incubation for 2 h according to the manufacturer’s protocol. Absorbance at 570 nm was measured in each well, including controls, and every experiment was carried out in triplicate.
as §1

On to `COc1cccc2c1C(=O)c1c(O)c3c(c(O)c1C2=O)C[C@@](O)(C(=O)CO)C[C@@H]3O[C@H]1C[C@H](N)[C@H](O)[C@H](C)O1` [DOX, doxorubicin, reference compound], for which the IC50 was found to be 31.8 µM in the experiment with MCF-10A cells, 4.04 µM in the experiment on MCF-7 cells and 3.61 µM in the experiment with HeLa cells.
As for `CC1(C)/C(=C\C(=O)N2CCCCC2)OC(=O)N1Cc1ccccc1` [OA], the half-maximal inhibitory concentration (IC50) came to 414 µM with MCF-10A cells, 56.9 µM in the experiment with MCF-7 cells and 52.5 µM in the experiment with HeLa cells.
`CC1(C)/C(=C/C(=O)N2CCCCC2)OC(=O)N1Cc1ccccc1` [OB]: the 50% inhibitory concentration (IC50) is 470 µM in the experiment with MCF-10A cells, 122 µM with MCF-7 cells and 98.2 µM with HeLa cells.
Take `CCN(CC)C(=O)/C=C1\OC(=O)N(Cc2ccccc2)C1(C)C` [OC]: the figures for the half-maximal inhibitory concentration (IC50) with MCF-10A cells, with MCF-7 cells and in the experiment with HeLa cells were 494 µM, 163 µM and 99.5 µM, respectively.
`CCCCN1C(=O)O/C(=C/C(=O)N2CCOCC2)C12CCCCC2` [OD]: the figures for the IC50 in the experiment with MCF-10A cells, with MCF-7 cells and in the experiment on HeLa cells were 506 µM, 338 µM and 154 µM, respectively.
For `CCCCN1C(=O)O/C(=C\C(=O)N2CCOCC2)C12CCCCC2` [OE], the half-inhibitory concentration (IC50) in the experiment on MCF-10A cells came out at 978 µM; in the experiment with MCF-7 cells, 304 µM; with HeLa cells, 129 µM.
For `CC1(C)/C(=C\C(=O)N2CCOCC2)OC(=O)N1Cc1ccccc1` [OF], in that order: 718 µM, 409 µM and 159 µM.
Turning to `CC1(C)/C(=C/C(=O)N2CCOCC2)OC(=O)N1Cc1ccccc1` [OG], the 50% inhibitory concentration (IC50) in the experiment with MCF-10A cells came out at 677 µM; with MCF-7 cells, 345 µM; in the experiment with HeLa cells, 134 µM.
For the compound `CCCCN1C(=O)O/C(=C/C(=O)N2CCOCC2)C1(C)CC` (stereo not drawn) [OH], the IC50 in the experiment with MCF-10A cells amounted to 319 µM; with MCF-7 cells it was 92.9 µM; in the experiment on HeLa cells, 54.2 µM.
